Experimental data taken from patent US8546433B2, “Axl inhibitors for use in combination therapy for preventing, treating or managing metastatic cancer” (Rigel Pharmaceuticals, Inc., priority 2009, dated 2013).

Columns and labels:
4T1 tumor cells [1] = experiment: Mouse 4T1 breast tumor model: Compound A in combination with Cisplatin in preventing lung and liver metastasis (Biological Example 2); format: in vivo, BALB/c mice; details: 21 days, FIG. 7
Description: Using a variation of the mouse 4T1 breast tumor model, as described in Current Protocols in Immunology (2000), 20.2.1-20.2.16, Compound A in combination with Cisplatin was assayed to determine the efficacy of the combination therapy to prevent, treat or manage metastatic cancer in BALB/c mice.
• Vehicle: 0.5% HPMC/0.1% Tween. • Compound A: Preformulated dosing solutions in vehicle for 7 mg/kg and 21 mg/kg for oral administration. • Cisplatin: Diluted in sterile saline for 1.2 mg/kg (suboptimal clinical formulation) for intravenous administration. Protocol
(§1) Sixty-six BALB/c mice were inoculated with 5×10^5 4T1 tumor cells (ATCC) orthotoically into the third mammary fat pad. On Day 0 of the study (2 days post-inoculation), 60 mice were randomized into 6 groups (10 mice per group). Dose administration began on Day 0 and continued for 21 days (3 weeks). Compound A was administered twice a day, Cisplatin was administered once a week, and Zometa was administered three times weekly. Tumor measurements were performed three times per week, starting when tumors were palpable (approximately 3×3 mm). Body weight measurements were taken three times per week at the same time each day. Tumor and body weight measurements fall all mice were measured prior to dose administration.
On Day 21 of the treatment, mice were euthanized and the lungs exposed and the number of surface lung metastases were counted. The size of each metastasis was measured using a caliper in one dimenstion and categorized as follows:
Medium: Greater or equal to 2 mm
Large: Greater or equal to 3 mm
The lungs and livers from all mice were excised and placed in PLP fixative and stained for micrometastasis quantification.

4T1 tumor cells [2] = experiment: Mouse 4T1 breast tumor model: Compound A in preventing lung and liver metastasis of a primary breast tumor (Biological Example 1); format: in vivo, BALB/c mice; details: 21 days; for effect on the number of large lung metastases, difference to vehicle: FIG. 3; for effect on the incidence of liver micrometastases, difference to Cisplatin at 1.2 mg/kg / effect on the incidence of liver micrometastases, difference to vehicle: FIG. 4; for effect on the number of medium lung metastases, difference to vehicle: FIG. 2
Description: as §1, with “Protocol Eighty-eight” for “Sixty-six”, “80” for “60”, “8” for “6”, “administration. On Day 21 of the treatment, mice were euthanized and the lungs exposed and the numbers of surface lung metastases were counted. The size of each metastasis was measured using a caliper in one dimenstion and categorized as follows: Small: Less than 2 mm Medium: Greater or equal to 2 mm Large: Greater or equal to 3 mm The lungs and livers from all mice were excised and placed in PLP fixative and stained for micrometastasis quantification.” for “administration.”

[3] = Cisplatin 1.2 mg/kg intravenous once a week, p<0.05, Mann-Whitney Test
[4] = Cisplatin 2.4 mg/kg intravenous once a week, p<0.05, Mann-Whitney Test
[5] = Compound A 25 mg/kg oral twice a day, p<0.05, Mann-Whitney Test
[6] = Compound A 45 mg/kg oral twice a day, p<0.05, Mann-Whitney Test

N.N.[Cl][Pt][Cl] [Cisplatin, cis-diamminedichloridoplatinum(II), reference compound]
significant: effect on reducing the number of large lung metastases, difference to vehicle (4T1 tumor cells [1]; [3]) | effect on the number of large lung metastases, difference to vehicle (4T1 tumor cells [2]; [3]) | effect on the number of large lung metastases, difference to vehicle (4T1 tumor cells [2]; [4]) | effect on the incidence of liver micrometastases, difference to Cisplatin at 1.2 mg/kg (4T1 tumor cells [2]; [4]) | effect on the incidence of liver micrometastases, difference to Cisplatin at 1.2 mg/kg (4T1 tumor cells [2]; Cisplatin 4 mg/kg intravenous once a week, p<0.05, Mann-Whitney Test) | effect on the number of medium lung metastases, difference to vehicle (4T1 tumor cells [2]; cisplatin 4 mg/kg intravenous once a week, p<0.001, Mann-Whitney Test)

Nc1nc(Nc2ccc3c(c2)CC[C@@H](N2CCCC2)CC3)nn1-c1cc2c(nn1)-c1ccccc1CCC2 [Compound A, 1-(6,7-dihydro-5H-benzo[6,7]cyclohepta[1,2-c]pyridazin-3-yl)-N^3-((7-(S)-pyrrolidin-1-yl)-6,7,8,9-tetrahydro-5H-benzo[7]annulene-2-yl)-1H-1,2,4-triazole-3,5-diamine]
significant: effect on reducing the number of large lung metastases, difference to vehicle (4T1 tumor cells [1]; Compound A 7 mg/kg oral twice a day, p<0.01, Mann-Whitney Test) | effect on reducing the number of large lung metastases, difference to vehicle (4T1 tumor cells [1]; Compound A 21 mg/kg oral twice a day, p<0.01, Mann-Whitney Test) | effect on the number of large lung metastases, difference to vehicle (4T1 tumor cells [2]; [5]) | effect on the incidence of liver micrometastases, difference to vehicle (4T1 tumor cells [2]; [5]) | effect on the number of medium lung metastases, difference to vehicle (4T1 tumor cells [2]; [6]) | effect on the incidence of liver micrometastases, difference to vehicle (4T1 tumor cells [2]; [6]) | effect on the incidence of liver micrometastases, difference to vehicle (4T1 tumor cells [2]; Compound A 75 mg/kg oral twice a day, p<0.05, Mann-Whitney Test)

O=P(O)(O)C(O)(Cn1ccnc1)P(=O)(O)O [Zometa, reference compound]
significant: effect on the incidence of liver micrometastases, difference to vehicle (4T1 tumor cells [2]; Zometa 0.1 mg/kg subcutaneous three times weekly, p<0.05, Mann-Whitney Test)
